Tests used:
[1] = system: Erysiphe graminis f sp. tritici; assay: Test G: wheat powdery mildew, preventive spray on wheat seedlings; details: 100 = 100% disease control; for Test G disease control rating: 10 ppm test solution, 0 = no control relative to controls; for Test G rating (% disease control): 10 ppm, wheat powdery mildew, 0 = no control
Stagonospora nodorum = assay: Test D: wheat glume blotch, preventive spray on wheat seedlings; details: 100 = 100% disease control; for Test D disease control rating: 10 ppm test solution, 0 = no control relative to controls; for Test D rating (% disease control): 10 ppm, wheat glume blotch, 0 = no control
Zymoseptoria tritici = assay: Test E: wheat leaf blotch, preventive spray on wheat seedlings; details: 100 = 100% disease control; for Test E disease control rating: 10 ppm test solution, 0 = no control relative to controls; for Test E rating (% disease control): 10 ppm, wheat leaf blotch, 0 = no control
Description: General protocol for preparing test solutions for Tests A-G: the test compounds were first dissolved in acetone in an amount equal to 3% of the final volume and then suspended at the desired concentration (in ppm) in acetone and purified water (50/50 mix by volume) containing 250 ppm of the surfactant PEG400 (polyhydric alcohol esters). The resulting test suspensions were then used in Tests A-G. Compounds were sprayed at a concentration of 50 ppm (*) or 10 ppm to the point of run-off on the test plants, the equivalent of a rate of 200 g/ha or 40 g/ha, respectively.
The test solution was sprayed to the point of run-off on wheat seedlings. The following day the seedlings were inoculated with a spore suspension of Zymoseptoria tritici (the causal agent of wheat leaf blotch) and incubated in a saturated atmosphere at 24° C. for 48 h, and then moved to a growth chamber at 20° C. for 17 days, after which time visual disease ratings were made.
Compounds with an asterisks (*) were applied at a concentration of 50 ppm, otherwise test solutions were applied at 10 ppm.

[2] = system: Puccinia recondita f sp. tritici; assay: Test F: wheat leaf rust, preventive spray on wheat seedlings; details: 100 = 100% disease control; for Test F disease control rating: 10 ppm test solution, 0 = no control relative to controls; for Test F rating (% disease control): 10 ppm, wheat leaf rust, 0 = no control

## CC(C)CC(O)(Cn1cncn1)C1=NOC(COc2ccc(Cl)cc2)C1 (single isomer, unassigned) [Compound 268]
[1]
  Test G disease control rating: 95%
Stagonospora nodorum
  Test D disease control rating: 82%
Zymoseptoria tritici
  Test E disease control rating: 0%
[2]
  Test F disease control rating: 100%

## CCC(C)(C)C(O)(Cn1cncn1)C1=NOC(COc2ccc(F)cc2)C1 (single isomer, unassigned) [Compound 250]
[1]
  Test G disease control rating: 99%
Stagonospora nodorum
  Test D disease control rating: 64%
Zymoseptoria tritici
  Test E disease control rating: 0%
[2]
  Test F disease control rating: 99%

## CC(C)CC(O)(Cn1cncn1)C1=NOC(COc2ccc(Cl)cc2)C1 (single isomer, unassigned) [Compound 267]
[1]
  Test G disease control rating: 100%
Stagonospora nodorum
  Test D disease control rating: 100%
Zymoseptoria tritici
  Test E disease control rating: 3%
[2]
  Test F disease control rating: 100%

## CCC(C)(C)C(O)(Cn1cncn1)C1=NOC(COc2ccc(F)cc2)C1 (single isomer, unassigned) [Compound 249]
[1]
  Test G disease control rating: 100%
Stagonospora nodorum
  Test D disease control rating: 100%
Zymoseptoria tritici
  Test E disease control rating: 0%
[2]
  Test F disease control rating: 100%

## CC1(C(O)(Cn2cncn2)C2=NOC(COc3ccc(C(F)(F)F)cc3)C2)CC1 (single isomer, unassigned) [Compound 236]
[1]
  Test G disease control rating: 100%
Stagonospora nodorum
  Test D disease control rating: 99%
Zymoseptoria tritici
  Test E disease control rating: 16%
[2]
  Test F disease control rating: 100%

## CC(C)(C)CC(O)(Cn1cncn1)C1=NOC(COc2ccc(F)cc2)C1 (single isomer, unassigned) [Compound 245]
[1]
  Test G disease control rating: 98%
Stagonospora nodorum
  Test D disease control rating: 51%
Zymoseptoria tritici
  Test E disease control rating: 2%
[2]
  Test F disease control rating: 98%

## CC(C)(C)C(O)(Cn1cncn1)C1=NOC(COc2cccc(C(F)(F)F)c2)C1 (single isomer, unassigned) [Compound 254]
[1]
  Test G disease control rating: 99%
Stagonospora nodorum
  Test D disease control rating: 99%
Zymoseptoria tritici
  Test E disease control rating: 0%
[2]
  Test F disease control rating: 100%

## CC(C)(C)C(O)(Cn1cncn1)C1=NOC(COc2ccc(Cl)cc2)C1 (single isomer, unassigned) [Compound 243]
[1]
  Test G disease control rating: 0%
Stagonospora nodorum
  Test D disease control rating: 0%
Zymoseptoria tritici
  Test E disease control rating: 0%
[2]
  Test F disease control rating: 99%

## CC(C)(C)C(O)(Cn1cncn1)C1=NOC(COc2ccc(-c3ccccc3)cc2)C1 (single isomer, unassigned) [Compound 228]
[1]
  Test G disease control rating: 99%
Stagonospora nodorum
  Test D disease control rating: 0%
Zymoseptoria tritici
  Test E disease control rating: 12%
[2]
  Test F disease control rating: 86%

## OC(Cn1cncn1)(C1=NOC(COc2ccc(Cl)cc2)C1)C1(Cl)CC1 (single isomer, unassigned) [Compound 251]
[1]
  Test G disease control rating: 100%
Stagonospora nodorum
  Test D disease control rating: 100%
Zymoseptoria tritici
  Test E disease control rating: 3%
[2]
  Test F disease control rating: 100%

## CC(C)(C)C(O)(Cn1cncn1)C1=NOC(COc2ccc(Cl)c(Cl)c2)C1 (single isomer, unassigned) [Compound 257]
[1]
  Test G disease control rating: 100%
Stagonospora nodorum
  Test D disease control rating: 100%
Zymoseptoria tritici
  Test E disease control rating: 29%
[2]
  Test F disease control rating: 100%

## OC(Cn1cncn1)(C1=NOC(Cc2ccc(-c3ccccc3)cc2)C1)c1ccc(Cl)cc1 (single isomer, unassigned) [Compound 204]
[1]
  Test G rating (% disease control): 99%
Stagonospora nodorum
  Test D rating (% disease control): 77%
Zymoseptoria tritici
  Test E rating (% disease control): 0%
[2]
  Test F rating (% disease control): 100%

## CC(C)(C)C(O)(Cn1cnnn1)C1=NOC(COc2ccc(Cl)cc2)C1 (stereo not shown) [Compound 246]
[1]
  Test G disease control rating: 95%
Stagonospora nodorum
  Test D disease control rating: 98%
Zymoseptoria tritici
  Test E disease control rating: 0%
[2]
  Test F disease control rating: 100%

## OC(Cn1cncn1)(C1=NOC(COc2ccc(Cl)cc2)C1)C1CCCCC1 (single isomer, unassigned) [Compound 265]
[1]
  Test G disease control rating: 100%
Stagonospora nodorum
  Test D disease control rating: 99%
Zymoseptoria tritici
  Test E disease control rating: 1%
[2]
  Test F disease control rating: 100%

## CC(C)(C)C(O)(Cn1cncn1)C1=NOC(CCOc2ccc(Cl)cc2)C1 (single isomer, unassigned) [Compound 208]
[1]
  Test G rating (% disease control): 100%
Stagonospora nodorum
  Test D rating (% disease control): 100%
Zymoseptoria tritici
  Test E rating (% disease control): 74%
[2]
  Test F rating (% disease control): 100%

## CCC(C)(C)C(O)(Cn1cncn1)C1=NOC(COc2ccc(C(F)(F)F)cc2)C1 (single isomer, unassigned) [Compound 262]
[1]
  Test G disease control rating: 98%
Stagonospora nodorum
  Test D disease control rating: 0%
Zymoseptoria tritici
  Test E disease control rating: 41%
[2]
  Test F disease control rating: 99%

## COc1ccc(OCC2CC(C(O)(Cn3cncn3)C(C)(C)C)=NO2)cc1 (single isomer, unassigned) [Compound 259]
[1]
  Test G disease control rating: 99%
Stagonospora nodorum
  Test D disease control rating: 99%
Zymoseptoria tritici
  Test E disease control rating: 0%
[2]
  Test F disease control rating: 92%

## CC(C)(C)C(O)(Cn1cnnn1)C1=NOC(COc2ccc(Cl)cc2)C1 (stereo not shown) [Compound 247]
[1]
  Test G disease control rating: 0%
Stagonospora nodorum
  Test D disease control rating: 0%
Zymoseptoria tritici
  Test E disease control rating: 24%
[2]
  Test F disease control rating: 97%

## OC(Cn1cncn1)(C1=NOC(COc2ccc(Cl)cc2)C1)C1(Cl)CC1 (single isomer, unassigned) [Compound 252]
[1]
  Test G disease control rating: 89%
Stagonospora nodorum
  Test D disease control rating: 78%
Zymoseptoria tritici
  Test E disease control rating: 2%
[2]
  Test F disease control rating: 100%

## OC(Cn1cncn1)(C1=NOC(Cc2ccc(-c3ccccc3)cc2)C1)c1ccc(Cl)cc1 (single isomer, unassigned) [Compound 205]
[1]
  Test G rating (% disease control): 98%
Stagonospora nodorum
  Test D rating (% disease control): 10%
Zymoseptoria tritici
  Test E rating (% disease control): 6%
[2]
  Test F rating (% disease control): 68%

## CC(C)(C)C(O)(Cn1cncn1)C1=NOC(COCc2ccc(Cl)cc2)C1 (single isomer, unassigned) [Compound 263]
[1]
  Test G disease control rating: 99%
Stagonospora nodorum
  Test D disease control rating: 99%
Zymoseptoria tritici
  Test E disease control rating: 0%
[2]
  Test F disease control rating: 87%

## OC(Cn1cncn1)(C1=NOC(COc2ccc(Cl)cc2)C1)C1CCCCC1 (single isomer, unassigned) [Compound 266]
[1]
  Test G disease control rating: 100%
Stagonospora nodorum
  Test D disease control rating: 100%
Zymoseptoria tritici
  Test E disease control rating: 0%
[2]
  Test F disease control rating: 100%

Reference: patent US20160242416A1, “FUNGICIDAL ISOXAZOLINE CARBINOLS” (E I DU PONT DE NEMOURS AND COMPANY, priority 2015, published 2016)
